Reference: PMC5887109, “Unravelling the Molecular Determinants of Bee Sensitivity to Neonicotinoid Insecticides” (Current Biology, 2018)

Assays:
Assay in all cases: in vitro
Details in all cases: for metabolism by the recombinant P450 (in words): hydroxylation (thiacloprid, imidacloprid) or N-desmethylation (acetamiprid)
CYP9Q2 = target: T1, CYP9Q2 (Apis mellifera, UniProt A0A7M7R6F2)
T1 sequence (A0A7M7R6F2 1-532): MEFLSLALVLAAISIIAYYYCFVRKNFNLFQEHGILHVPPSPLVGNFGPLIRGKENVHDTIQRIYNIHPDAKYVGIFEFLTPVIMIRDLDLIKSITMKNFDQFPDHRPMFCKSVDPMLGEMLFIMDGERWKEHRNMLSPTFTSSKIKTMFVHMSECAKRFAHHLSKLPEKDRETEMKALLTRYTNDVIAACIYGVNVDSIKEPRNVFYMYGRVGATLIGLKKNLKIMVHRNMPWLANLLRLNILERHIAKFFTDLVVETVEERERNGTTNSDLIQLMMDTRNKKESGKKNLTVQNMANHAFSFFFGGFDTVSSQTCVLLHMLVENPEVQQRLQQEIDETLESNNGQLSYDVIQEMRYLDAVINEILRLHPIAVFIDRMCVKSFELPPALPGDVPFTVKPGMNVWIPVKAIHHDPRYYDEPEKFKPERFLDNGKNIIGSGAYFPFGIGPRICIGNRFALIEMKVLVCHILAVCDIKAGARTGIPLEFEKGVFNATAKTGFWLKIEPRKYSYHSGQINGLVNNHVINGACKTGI
T1 sequence (Q07994 1-671 partner): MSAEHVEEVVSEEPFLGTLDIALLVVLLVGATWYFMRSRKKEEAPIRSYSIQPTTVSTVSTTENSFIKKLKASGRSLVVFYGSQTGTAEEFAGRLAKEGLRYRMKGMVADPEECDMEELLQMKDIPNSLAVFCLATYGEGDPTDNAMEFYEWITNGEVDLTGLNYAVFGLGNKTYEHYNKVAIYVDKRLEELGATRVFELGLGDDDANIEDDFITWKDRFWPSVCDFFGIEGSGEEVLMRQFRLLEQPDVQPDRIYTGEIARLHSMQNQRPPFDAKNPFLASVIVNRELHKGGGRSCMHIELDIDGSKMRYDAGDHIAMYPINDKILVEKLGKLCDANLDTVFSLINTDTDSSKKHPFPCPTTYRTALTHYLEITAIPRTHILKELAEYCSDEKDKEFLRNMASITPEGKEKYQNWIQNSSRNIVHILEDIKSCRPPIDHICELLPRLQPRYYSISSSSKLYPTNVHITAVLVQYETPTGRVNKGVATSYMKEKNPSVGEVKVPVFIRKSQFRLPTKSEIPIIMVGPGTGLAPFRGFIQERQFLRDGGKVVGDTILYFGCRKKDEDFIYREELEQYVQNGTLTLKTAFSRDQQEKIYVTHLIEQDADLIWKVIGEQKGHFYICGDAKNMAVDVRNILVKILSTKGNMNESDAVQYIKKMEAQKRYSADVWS
Source text: (§1) All bee P450 (see Table S3 for accession numbers) and house fly NADPH-dependent cytochrome P450 reductase (CPR) (GenBank accession number Q07994) genes were obtained by gene synthesis (Geneart, CA, USA) and inserted into the pDEST8 expression vector (Invitrogen). Codon optimization of all bee genes was used to optimize expression in lepidopteran cell lines. The PFastbac1 vector with no inserted DNA was used to produce a control virus. The recombinant baculovirus DNA was constructed and transfected into Trichoplusia ni (High five cells, Thermo Fisher) using the Bac-to-Bac baculovirus expression system (Invitrogen) according to the manufacturer’s instructions. The titer of the recombinant virus was determined following protocols of the supplier. High Five cells grown to a density of 2 × 10^6 cells ml^-1 were co-infected with recombinant baculoviruses containing each bee P450 and CPR with a range of MOI (multiplicity of infection) ratios to identify the optimal conditions. Control cells were co-infected with the baculovirus containing vector with no insert (ctrl-virus) and the recombinant baculovirus expressing CPR using the same MOI ratios. Ferric citrate and δ-aminolevulinic acid hydrochloride were added to a final concentration of 0.1 mM at the time of infection and 24 h after infection to compensate the low levels of endogenous heme in the insect cells. After 48 h, cells were harvested, washed with PBS, and microsomes of the membrane fraction prepared according to standard procedures and stored at −80°C [31]. Briefly, pellets were homogenized for 30 s in 0.1M Na/K-phosphate buffer, pH 7.4 containing 1mM EDTA and DTT and 200mM sucrose using a Fastprep (MP Biomedicals), filtered through miracloth and centrifuging for 10 min at 680 g at 4°C. The supernatant was then centrifuged for 1 h at 100,000 g at 4°C, with the pellet subsequently resuspended in 0.1M Na/K-phosphate buffer, pH 7.6 containing 1mM EDTA and DTT and 10% glycerol using a Dounce tissue grinder. P450 expression and functionality was estimated by measuring CO-difference spectra in reduced samples using a Specord 200 Plus Spectrophotometer (Analytik Jena) and scanning from 500 nm to 400 nm. The protein content of samples was determined using Bradford reagent (Sigma) and bovine serum albumin (BSA) as a reference.
(§2) The total assay volume was 200 μL using three replicates for each data point. Microsomes incubated without NADPH served as a control. The assay was stopped by the addition of ice-cold acetonitrile (to 80% final concentration), centrifuged for 10 min at 3000 g and the supernatant subsequently analyzed by tandem mass spectrometry as described previously. For the chromatography on a Waters Acquity HSS T3 column (2.1x50mm, 1.8μm), acetonitrile/water/0.1% formic acid was used as the eluent in gradient mode. […] The peak integrals were calibrated externally against a standard calibration curve. […] Substrate turnover from two independent reactions were plotted versus controls and Michaelis-Menten kinetics determined using GraphPad Prism version 7 (GraphPad Software, CA, USA).

CYP9Q1 = CYP9Q1 (Apis mellifera, UniProt A0A7M7GTV9)
Source text: as §1, §2

CYP9Q3 = CYP9Q3 (Apis mellifera, UniProt A0A7M7LMV1)
Source text: as §1, §2

[1] = apparent value, mean ± SD (n=3), decimal commas

Sequence of CYP9Q1 (A0A7M7GTV9 entry or part of it, one chain of several): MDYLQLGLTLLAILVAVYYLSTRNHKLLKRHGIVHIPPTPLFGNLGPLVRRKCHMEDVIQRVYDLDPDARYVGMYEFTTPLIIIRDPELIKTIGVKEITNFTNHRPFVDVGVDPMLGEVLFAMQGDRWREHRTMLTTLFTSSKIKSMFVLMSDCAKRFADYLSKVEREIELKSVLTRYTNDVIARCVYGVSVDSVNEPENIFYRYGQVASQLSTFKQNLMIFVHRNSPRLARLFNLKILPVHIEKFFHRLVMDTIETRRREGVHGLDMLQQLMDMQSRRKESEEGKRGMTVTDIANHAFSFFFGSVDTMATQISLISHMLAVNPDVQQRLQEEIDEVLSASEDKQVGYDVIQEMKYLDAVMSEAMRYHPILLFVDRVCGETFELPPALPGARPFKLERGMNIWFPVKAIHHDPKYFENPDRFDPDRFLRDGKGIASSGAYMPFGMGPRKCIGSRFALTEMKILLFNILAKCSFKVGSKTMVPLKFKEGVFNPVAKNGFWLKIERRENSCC
Sequence of CYP9Q3 (A0A7M7LMV1 entry or part of it, one chain of several): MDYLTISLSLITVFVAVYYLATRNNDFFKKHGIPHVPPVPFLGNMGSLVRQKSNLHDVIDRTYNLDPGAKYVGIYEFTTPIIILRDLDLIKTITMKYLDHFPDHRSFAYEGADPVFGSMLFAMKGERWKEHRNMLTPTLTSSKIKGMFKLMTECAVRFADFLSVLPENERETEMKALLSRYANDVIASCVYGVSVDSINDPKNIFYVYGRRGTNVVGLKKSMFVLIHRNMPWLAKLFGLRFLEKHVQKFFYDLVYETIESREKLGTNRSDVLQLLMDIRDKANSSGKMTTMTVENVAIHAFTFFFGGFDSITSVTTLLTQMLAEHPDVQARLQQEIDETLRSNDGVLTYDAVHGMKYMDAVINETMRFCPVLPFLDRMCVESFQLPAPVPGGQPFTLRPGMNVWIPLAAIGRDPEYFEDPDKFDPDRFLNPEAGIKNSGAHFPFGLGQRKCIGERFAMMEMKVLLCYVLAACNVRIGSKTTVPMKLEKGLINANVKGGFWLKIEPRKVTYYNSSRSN

Row | Structure (SMILES) | Km at 2 h (CYP9Q2; Apis mellifera) [µM] | Vmax, thiacloprid hydroxylation (CYP9Q2; [1]) | metabolism by the recombinant P450 (in words) (CYP9Q2) | Km at 2 h (CYP9Q1; Apis mellifera) [µM] | Vmax, thiacloprid hydroxylation (CYP9Q1; [1]) | metabolism by the recombinant P450 (in words) (CYP9Q1) | Km at 2 h (CYP9Q3; Apis mellifera) [µM] | Vmax, thiacloprid hydroxylation (CYP9Q3; [1]) | metabolism by the recombinant P450 (in words) (CYP9Q3)
1 | N#C/N=C1\SCCN1Cc1ccc(Cl)nc1 [thiacloprid] | 5.65 | 44,31±1,01 pmol min-1 mg-1 | weak activity | 17.8 | 3,92 ±0,08 pmol min-1 mg-1 | weak activity | 3.92 | 607,8±5,48 pmol min-1 mg-1 | highly efficient metabolizer
2 | O=[N+]([O-])NC1=NCCN1Cc1ccc(Cl)nc1 [imidacloprid] | – | – | much lower efficiency than exhibited for thiacloprid | – | – | much lower efficiency than exhibited for thiacloprid | – | – | much lower efficiency than exhibited for thiacloprid
